Experiments:
human p110α/p85α (PI3Kα) = target: T1, human p110α/p85α (PI3Kα) (Homo sapiens, UniProt P42336); assay: ADP-Glo in vitro lipid kinase assay, PI3Kα; assay type: biochemical; details: for Maximum activity relative to 1938 / Maximum activity relative to pY control: SI Table 3; for EC50: SI Table 3, 1938 analogues, read-out: EC50; for reduction in activity: relative to 1938
T1 construct: Full-length human p110α was expressed either in a complex with full-length human p85α (for HTS, biochemistry and HDX-MS); 6xHis tag followed by TEV protease site (N); host or cells: Spodoptera frugiperda Sf9, baculovirus
T1 sequence (P42336 whole entry): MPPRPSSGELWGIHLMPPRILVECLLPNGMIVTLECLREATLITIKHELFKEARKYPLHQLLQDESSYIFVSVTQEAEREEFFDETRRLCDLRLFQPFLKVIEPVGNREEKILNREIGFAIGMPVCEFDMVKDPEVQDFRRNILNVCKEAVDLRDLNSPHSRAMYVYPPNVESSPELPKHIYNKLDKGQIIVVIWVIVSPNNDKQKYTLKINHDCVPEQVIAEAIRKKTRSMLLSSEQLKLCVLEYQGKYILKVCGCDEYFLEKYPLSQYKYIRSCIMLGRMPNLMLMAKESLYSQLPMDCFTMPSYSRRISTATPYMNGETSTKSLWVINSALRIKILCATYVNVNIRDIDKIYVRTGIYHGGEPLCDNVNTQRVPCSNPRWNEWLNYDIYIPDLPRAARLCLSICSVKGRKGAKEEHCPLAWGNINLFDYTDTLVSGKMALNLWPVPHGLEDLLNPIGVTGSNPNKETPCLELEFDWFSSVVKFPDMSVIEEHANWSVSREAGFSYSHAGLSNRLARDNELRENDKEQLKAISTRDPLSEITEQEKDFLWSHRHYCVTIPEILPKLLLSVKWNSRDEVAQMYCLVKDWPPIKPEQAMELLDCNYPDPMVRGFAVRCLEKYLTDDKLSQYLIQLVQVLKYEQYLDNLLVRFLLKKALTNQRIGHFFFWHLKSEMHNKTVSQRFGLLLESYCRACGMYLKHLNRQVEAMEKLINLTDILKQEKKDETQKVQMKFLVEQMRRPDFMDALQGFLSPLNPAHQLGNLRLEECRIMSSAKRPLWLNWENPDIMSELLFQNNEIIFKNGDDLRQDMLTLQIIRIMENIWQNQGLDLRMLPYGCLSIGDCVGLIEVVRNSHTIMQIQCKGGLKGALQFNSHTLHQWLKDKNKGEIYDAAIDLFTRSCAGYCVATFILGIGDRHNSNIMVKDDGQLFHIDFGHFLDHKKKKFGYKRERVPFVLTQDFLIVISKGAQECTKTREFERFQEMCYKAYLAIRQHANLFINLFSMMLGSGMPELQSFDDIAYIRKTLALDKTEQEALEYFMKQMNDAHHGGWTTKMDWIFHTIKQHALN
T1 sequence (P27986 whole entry partner): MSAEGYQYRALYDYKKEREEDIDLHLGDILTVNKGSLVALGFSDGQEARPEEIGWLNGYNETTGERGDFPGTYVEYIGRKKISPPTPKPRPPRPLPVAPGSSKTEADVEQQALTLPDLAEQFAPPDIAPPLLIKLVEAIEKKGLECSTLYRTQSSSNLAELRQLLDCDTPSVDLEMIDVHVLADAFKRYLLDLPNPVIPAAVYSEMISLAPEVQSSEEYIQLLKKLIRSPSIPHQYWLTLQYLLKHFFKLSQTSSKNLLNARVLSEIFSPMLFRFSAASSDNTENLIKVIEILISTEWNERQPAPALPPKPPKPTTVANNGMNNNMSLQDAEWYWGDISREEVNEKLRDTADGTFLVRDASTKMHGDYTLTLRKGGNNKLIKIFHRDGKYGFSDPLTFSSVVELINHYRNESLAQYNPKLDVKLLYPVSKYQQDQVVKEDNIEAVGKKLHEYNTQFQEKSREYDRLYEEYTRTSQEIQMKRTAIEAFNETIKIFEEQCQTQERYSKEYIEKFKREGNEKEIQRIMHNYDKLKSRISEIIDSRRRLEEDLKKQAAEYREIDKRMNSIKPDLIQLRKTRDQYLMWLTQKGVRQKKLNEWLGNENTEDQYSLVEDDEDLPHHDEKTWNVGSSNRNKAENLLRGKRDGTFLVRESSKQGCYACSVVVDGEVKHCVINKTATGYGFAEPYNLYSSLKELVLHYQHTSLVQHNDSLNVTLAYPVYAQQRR
Description: Kinase reactions were performed with ADP-Glo kinase assay kit (Promega Corporation). The enzyme, substrate and compounds were diluted in reaction buffer (20 mM HEPES, 50 mM NaCl, 50 mM KCl, 3 mM MgCl2, 1 mM EGTA, 1 mM TCEP, pH 7.4). Final concentrations of PI3Kα and PI3Kδ used were 25 nM and 50 nM for PI3Kβ. Liposomes (5% brain PI(4,5)P2, 20% brain phosphatidylserine, 45% brain phosphatidylethanolamine, 15% brain phosphatidylcholine, 10% cholesterol, 5% sphingomyelin (Avanti Polar Lipids)) were used at a final concentration of 1 mg/ml.
For the HTS, the reaction mixture contained 0.75 μl enzyme, 15 nl compound and/or pY and 0.75 μl of liposome substrate mixed with ATP. […] (GL Biochem, Shanghai Ltd). ATP was used at a final concentration of 500 μM unless otherwise stated. The final DMSO concentration in the assay was 1%. The experiments were performed at room temperature for 3 h using 1536-well white-polystyrene plates (Corning #3729) before addition of 2 μl of ADP-Glo R1 to terminate the reaction. The plate was incubated for 40 min, followed by addition of 4 μl of ADP-Glo R2 and incubated further for 60 min in the dark. Luminescence was read using an EnVision (PerkinElmer) plate reader. All analyses were performed using Genedata Screener.
For re-screening of HTS hits and routine compound profiling, the reaction mixture contained 2 μl PI3K enzyme, 2 μl compound and/or pY and 2 μl of liposome substrate mixed with ATP. ATP was used at a final concentration of 500 μM for PI3Kα and PI3Kβ and at 200 μM for PI3Kδ, unless otherwise stated. The final DMSO concentration in the assay was 1%. The experiments were performed at room temperature for 3 h using 384 white-polystyrene plates (Corning #3824) before addition of 6 μl of ADP-Glo R1 to terminate the reaction. The plate was incubated for 45 min, followed by addition of 12 μl of ADP-Glo R2 and incubated further for 60 min in the dark. Luminescence was read using a Sense (Hidex) plate reader. […] All analyses were performed using GraphPad Prism 7.
For characterisation of the effects of 1938 on in vitro PI3K enzymology, all reactions were performed at room temperature with 384 white-polystyrene plates (Corning #3574). The final DMSO concentration in the assay was between 0.5%-1.8%. The reaction mixture contained 2 μl PI3K enzyme, 2 μl compound and/or pY and 2 μl of liposome substrate mixed with ATP. ATP was used at a final concentration of 200 μM, unless otherwise stated.

PI3Kα-KO MEFs = assay: pAKT S473 western blot, PI3Kα-KO MEFs; assay type: cell-based, mouse; details: TGX-221 0.2 μM
Description: Unless otherwise indicated, western blotting was performed with ECL detection. For time course studies, A549 cells were seeded at 250,000 cells per well in 6-well plates in RPMI (10% FBS + 1 mM Na-Pyruvate + 1% P/S) and allowed to adhere overnight. The next day they were serum-starved for 4 h prior to treatment with 100 nM insulin or 5 μM 1938, for the indicated time (5 min to 48 h) at 37°C, 5% CO2. For 1938 titration assays in MEFs, cells were seeded at 150,000 cells per well in 6-well plates and allowed to adhere overnight. The next day they were serum-starved for 4 h prior to treatment with insulin (1 μM), 1938 (0.2 to 30 μM, final DMSO concentration of 1.5%) or inhibitors (final DMSO concentration of ≤1.5%) for 15 min at 37°C, 5% CO2. Cells were washed twice with cold PBS and lysed using cold RIPA buffer (25 mM Tris.HCl pH 7.6, 150 mM NaCl, 1% NP-40, 1% sodium deoxycholate, 0.1% SDS supplemented with protease/phosphatase inhibitor cocktail from Merck). To remove cell debris, homogenates were spun at 13,000 rpm for 15 min at 4°C and the supernatant fraction recovered. Protein concentration was determined by colorimetric assay (BCA assay, Promega). Protein extracts were resolved by SDS-PAGE, transferred to nitrocellulose membranes, and incubated overnight at 4°C with specific antibodies as follows: anti-vinculin (Sigma #V9131) and the following antibodies from Cell Signaling Technology (CST): pAKT-S473 (CST #9271), pS6-S240/244 (CST #2215), pPRAS40-T246 (CST #2640) and total S6 (CST #2317). Primary ntibodies were used at 1:1000 dilution except anti-vinculin (1:10000). Secondary antibodies are also from Cell Signalling Technology: Anti rabbit IgG, HRP linked Antibody (CST #7074S), Anti mouse IgG, HRP linked Antibody (CST #7076S). Raw and uncropped blots are shown in Supplementary Fig. 1.

MEFs = assay: Phosphoinositide quantification by mass spectrometry, MEFs; assay type: cell-based, mouse; details: 1938 at 5 μM, PDGF 20 ng/ml 2 min
Description: (§1) A549 cells (5.10^5) or wild-type MEFs (3.10^5) were plated in complete media onto 3.5 cm dishes or 60 mm dishes respectively for 24 h, prior to FCS-free starvation media for 16 h. MEFs, in addition, were supplemented with arachidonic acid in the FCS-free starvation media as previously described. […] Reactions were terminated in 600 μl ice-cold 1 M HCl and cells scraped and resuspended, then divided into two equal samples in eppendorfs. […] The data are shown as response ratios, calculated by normalizing the multiple reaction monitoring (MRM)-targeted lipid integrated response area to that of a known amount of relevant internal standard. To account for any cell input variability, PIP3 response ratios were normalized to C38:4-PI response ratios; while PI(3,4)P2 response ratios were normalised to PI(4,5)P2 response ratios. Data shown are mean ±SD for n ≥3, except for non-DMSO control in MEF PIP3 measurements where n=1.

A549 cells = assay: Phosphoinositide quantification by mass spectrometry, A549; assay type: cell-based, human; details: A549, 2 min
Description: as §1

Row | Compound | Maximum activity relative to 1938 (human p110α/p85α (PI3Kα)) [%] | Maximum activity relative to pY control (human p110α/p85α (PI3Kα)) [%] | other results
1 | COc1cc(Nc2cc(Nc3cccc4c3N(C(C)=O)CC4)ccn2)cc(OC)c1OC [Compound 1887] | 80 | – | EC50 (human p110α/p85α (PI3Kα)): 36 ± 5 µM
2 | COc1cc(N2CCN(C)CC2)ccc1Nc1cc(Nc2cccc3c2N(C(C)=O)CC3)ccn1 [Compound 1889] | 102 | – | EC50 (human p110α/p85α (PI3Kα)): 56 ± 24 µM
3 | CC(=O)N1CCc2cccc(Nc3ccnc(Nc4ccccc4)c3)c21 [Compound 2016] | 9 | 36 ± 8 | –
4 | CCN1CCN(c2ccc(Nc3cc(Nc4ccncn4)ccn3)cc2)CC1 [Compound 2106] | 4 | 14 ± 13 | reduction in activity (human p110α/p85α (PI3Kα)): > 95%
5 | CCN1CCN(c2ccc(Nc3nccc(Nc4cccc5c4N(C(C)=O)CC5)n3)cc2)CC1 [Compound 2152] | 4 | 16 ± 8 | reduction in activity (human p110α/p85α (PI3Kα)): > 95%
6 | Cc1cc(C(C)Nc2ccccc2)c2nc(N3CCOCC3)cc(=O)n2c1 (stereo not drawn) [TGX-221, reference compound] | – | – | effect on insulin-stimulated pAKT^S473 (PI3Kα-KO MEFs): sensitivity of insulin-stimulated pAKT^S473
7 | PDGF | – | – | PI(3,4)P2 signal by mass spectrometry (MEFs): detected; PIP3 response (A549 cells): no PIP3 induced

— publication PMC7614683, “A small molecule PI3Kα activator for cardioprotection and neuroregeneration” (Nature, 2023)
